Earlier results, collected in patent US8475827B2, “Tissue implants for implantation and methods for preparing the same” (CryoLife, Inc., priority 2010, dated 2013).

System: sensitive bacteria
Conditions: literature review

For NCC[C@H](O)C(=O)N[C@@H]1C[C@H](N)[C@@H](O[C@H]2O[C@H](CN)[C@@H](O)[C@H](O)[C@H]2O)[C@H](O)[C@H]1O[C@H]1O[C@H](CO)[C@@H](O)[C@H](N)[C@H]1O [amikacin], the “minimum inhibitory concentration against sensitive bacteria (MIC) range” value is given as 0.125 to 32 µg/mL.
